According to patent publication US20140179795A1, “Agent for Stabilizing Acetaminophen” (priority 2010, published 2014):

Columns and labels:
[1] = Stability under high-temperature and high-pressure conditions (121° C., 1 hour): color tone, precipitation, related substances by HPLC; assay type: physicochemical; set-up: key to Color tone: +++: deep brown; ++: slightly deep brown; +: light brown; ±: very little discoloration; −: no discoloration; key to Precipitation: +: visible precipitates; −: no precipitates; conditions: 1 w/v % acetaminophen, 5 w/v % xylitol, pH 5, 1-hour treatment; for Total amount of related substances (%): HPLC peak area 225 nm
Description: Aqueous compositions containing glycine at the concentrations shown in Table 1 below, 1 w/v % acetaminophen, 5 w/v % xylitol and phosphoric acid (q.s.) and having the pH of 5 were heat-treated at 121° C. for 1 hour, and subsequently visually observed in terms of the color tone (the degree of discoloration) and the presence of precipitates.
In addition, the concentration of acetaminophen-related substances in each aqueous composition was determined by HPLC. The HPLC conditions were as follows.
(§1) The analysis was performed using liquid chromatography as described in the purity test of acetaminophen (related substances) prescribed in the manual of the Japanese pharmacopoeia, 15th edition. That is, each solution was subjected to HPLC using an octadecyl silica gel column and a mobile phase prepared by mixing methanol and a potassium dihydrogen phosphate solution, the peak areas at the detection wavelength of 225 nm were determined by an automatic integration method, and the percentage of the summed peak areas of the related substances to the total area of all peaks (total amount of related substances (%)) was calculated.

[2] = Effects of pH on stability under extreme conditions (60° C., 21-day storage); assay type: physicochemical; set-up: key to Color tone: +++: deep brown; ++: slightly deep brown; +: light brown; ±: very little discoloration; −: no discoloration; key to Precipitation: +: visible precipitates; −: no precipitates; conditions: 0.56 w/v % glycine, 0.22 w/v % citric acid, 0.9 w/v % NaCl; for Total amount of related substances (%): HPLC
Description: as §1
Aqueous solutions with the pHs shown in Table 4 below were prepared by mixing 1 w/v % of acetaminophen, 0.56 w/v % of glycine, 0.22 w/v % of citric acid, 0.9 w/v % of NaCl, and NaOH or H3PO4 (q.s.). The aqueous solutions were autoclaved at 121° C. for 20 minutes and then stored at 60° C. for 21 days. Subsequently, the aqueous solutions were visually observed in terms of the color tone (the degree of discoloration) and the presence of precipitates. In addition, the concentration of acetaminophen-related substances in each aqueous solution was determined by HPLC.

Structure (SMILES): CC(=O)Nc1ccc(O)cc1 [acetaminophen, N-(4-hydroxyphenyl)acetamide]
- Color tone ([1]; glycine 0 w/v %): +
- Precipitation ([1]; glycine 0 w/v %): −
- Total amount of related substances (%) ([1]; glycine 0 w/v %): 0.33%
- Color tone ([1]; glycine 0.14 w/v %): −
- Precipitation ([1]; glycine 0.14 w/v %): −
- Total amount of related substances (%) ([1]; glycine 0.14 w/v %): 0.03%
- Color tone ([1]; glycine 0.28 w/v %): −
- Precipitation ([1]; glycine 0.28 w/v %): −
- Total amount of related substances (%) ([1]; glycine 0.28 w/v %): 0.01%
- Color tone ([1]; glycine 0.56 w/v %): −
- Precipitation ([1]; glycine 0.56 w/v %): −
- Total amount of related substances (%) ([1]; glycine 0.56 w/v %): 0%
- Color tone ([2]; pH 2, 1 w/v % acetaminophen): +++
- Precipitation ([2]; pH 2, 1 w/v % acetaminophen): +
- Total amount of related substances (%) ([2]; pH 2, 1 w/v % acetaminophen): 12.18%
- Color tone ([2]; pH 3, 1 w/v % acetaminophen): ++
- Precipitation ([2]; pH 3, 1 w/v % acetaminophen): +
- Total amount of related substances (%) ([2]; pH 3, 1 w/v % acetaminophen): 5.44%
- Color tone ([2]; pH 4, 1 w/v % acetaminophen): ±
- Precipitation ([2]; pH 4, 1 w/v % acetaminophen): +
- Total amount of related substances (%) ([2]; pH 4, 1 w/v % acetaminophen): 0.8%
- Color tone ([2]; pH 5, 1 w/v % acetaminophen): ±
- Precipitation ([2]; pH 5, 1 w/v % acetaminophen): −
- Total amount of related substances (%) ([2]; pH 5, 1 w/v % acetaminophen): 0.05%
- Color tone ([2]; pH 6, 1 w/v % acetaminophen): +
- Precipitation ([2]; pH 6, 1 w/v % acetaminophen): −
- Total amount of related substances (%) ([2]; pH 6, 1 w/v % acetaminophen): 0.05%
- Color tone ([2]; pH 7, 1 w/v % acetaminophen): ++
- Precipitation ([2]; pH 7, 1 w/v % acetaminophen): −
- Total amount of related substances (%) ([2]; pH 7, 1 w/v % acetaminophen): 0.06%
- Color tone ([2]; pH 8, 1 w/v % acetaminophen): +++
- Precipitation ([2]; pH 8, 1 w/v % acetaminophen): +
- Total amount of related substances (%) ([2]; pH 8, 1 w/v % acetaminophen): 0.07%
